Measurements reported in patent US7598420B1, “Rasagiline formulations and processes for their preparation” (Teva Pharmaceutical Industries, Ltd., priority 2005, dated 2009).

Columns and labels:
[1] = test system: monoamine oxidase enzyme Type-B (MAO-B); conditions: cited from earlier work
[2] = 80° C.-100° C., presence of a chloride ion source and low pH

SMILES | MAO-B inhibitory activity [1] | degree of selectivity for MAO-B inhibition ([1]; compared with the corresponding racemic form) | chlorination of the triple bond to form chlorinated allyl aminoindans (2-chloro and cis-3-chloro) [2]
C#CCN[C@@H]1CCc2ccccc21 [(R)-PAI, N-propargyl-1(R)-aminoindan] | active MAO-B inhibitor | surprisingly higher than that of the corresponding racemic form | –
C#CCN[C@H]1CCc2ccccc21 [(S)-PAI] | extremely low MAO-B inhibitory activity | – | –
C#CCN[C@@H]1CCc2ccccc21.CS(=O)(=O)O [rasagiline mesylate, N-propargyl-1(R)-aminoindan mesylate] | – | – | susceptible to chlorination
